Molecular target: S. aureus ATCC 29213 FabI (Staphylococcus aureus (strain MRSA252), UniProt Q6GI75)
Experiment: Staphylococcus aureus FabI enzyme inhibition assay
Type: biochemical
Conditions: pH 6.5, 30 minutes at room temperature
Method: FabI enzyme inhibition assays were carried out in half-area, 384-well microtitre plates. Compounds were evaluated in 40-μl assay mixtures containing 100 mM NaADA, pH 6.5 (ADA=N-[2-acetamido]-2iminodiacetic acid), 250 μM crotonoyl-CoA, 625 μM NADH and 50 μg/ml S. aureus ATCC 29213 FabI. Inhibitors were typically varied over the range of 50 to 0.39 μM. The reaction mixtures were incubated for 30 minutes at room temperature and the reaction was stopped by adding 200 mM Tris buffer (pH 9.0) to create a pH-shift. The consumption of NADH was monitored by measuring the change in absorbance at […]. By comparing sample readings to those of negative (absence of compound) and positive (absence of enzyme) controls, the percent inhibition of enzymatic activity of the compounds was determined. A best-fit curve is fitted by a minimum of squares method. From this an IC50-value (expressed in μg/ml), resulting in 50% inhibition of enzymatic activity, was obtained.

Structure (SMILES)	FabI IC50 [µg/mL]
COc1ccsc1C1=CC2CN(C(=O)/C=C/c3cnc4c(c3)CCC(=O)N4)CC2C1 (centres unmarked) [compound 72]	0.43
O=C1CCc2cc(/C=C/C(=O)N3C[C@@H]4CN(S(=O)(=O)c5ccccc5)C[C@@H]4C3)cnc2N1 [compound 33]	3.06
O=C1CCc2cc(/C=C/C(=O)N3C[C@@H]4CN(c5cccc(Cl)c5)C[C@@H]4C3)cnc2N1 [compound 36]	0.93
Cc1ccc(C2=CC3CN(C(=O)/C=C/c4cnc5c(c4)CCC(=O)N5)CC3C2)o1 (centres unmarked) [compound 57]	0.62
CC1=CC2CN(C(=O)/C=C/c3cnc4c(c3)CCC(=O)N4)CC2C1 (centres unmarked) [compound 52]	0.50
O=C1CCc2cc(/C=C/C(=O)N3C[C@H]4CC(c5ccncc5)=C[C@H]4C3)cnc2N1 (single isomer, unassigned) [compound 40]	0.39
O=C1CCc2cc(/C=C/C(=O)N3C[C@@H]4CC(c5ccsc5)=C[C@@H]4C3)cnc2N1 [compound 45]	0.45
O=C1CCc2cc(/C=C/C(=O)N3CC4CC(n5nccn5)CC4C3)cnc2N1 (centres unmarked) [compound 39]	0.56
O=C1CCc2cc(/C=C/C(=O)N3CC4CC(n5cccn5)CC4C3)cnc2N1 (centres unmarked) [compound 29]	1.04
O=C1CCc2cc(/C=C/C(=O)N3C[C@H]4CC(Oc5ccccc5)C[C@H]4C3)cnc2N1 (some centres unmarked) [compound 54]	1.84
O=C1CCc2cc(/C=C/C(=O)N3C[C@@H]4CN(c5cccs5)C[C@@H]4C3)cnc2N1 [compound 4]	0.70
O=C1CCc2cc(/C=C/C(=O)N3C[C@H]4CN(Cc5cccs5)C[C@H]4C3)cnc2N1 [compound 6]	3.73
CC(=O)c1ccc(C2=CC3CN(C(=O)/C=C/c4cnc5c(c4)CCC(=O)N5)CC3C2)s1 (centres unmarked) [compound 62]	0.44
Cn1cc(C2=CC3CN(C(=O)/C=C/c4cnc5c(c4)CCC(=O)N5)CC3C2)cn1 (centres unmarked) [compound 27]	0.6
Cc1cscc1C1=CC2CN(C(=O)/C=C/c3cnc4c(c3)CCC(=O)N4)CC2C1 (centres unmarked) [compound 60]	0.59
COC1CC2CN(C(=O)/C=C/c3cnc4c(c3)CCC(=O)N4)CC2C1 (centres unmarked) [compound 31]	1.42
O=C1CCc2cc(/C=C/C(=O)N3C[C@@H]4CN(c5ccc(Cl)cc5)C[C@@H]4C3)cnc2N1 [compound 35]	1.25
O=C1CCc2cc(/C=C/C(=O)N3CC4C=C(c5nccs5)CC4C3)cnc2N1 (centres unmarked) [compound 32]	0.46
O=C1CCc2cc(/C=C/C(=O)N3CC4CC(n5cncn5)CC4C3)cnc2N1 (centres unmarked) [compound 37]	3.37
O=C1CCc2cc(/C=C/C(=O)N3CC4CC(F)(F)CC4C3)cnc2N1 (centres unmarked) [compound 34]	1.67
O=C1CCc2cc(/C=C/C(=O)N3C[C@@H]4CN(c5cccnc5)C[C@@H]4C3)cnc2N1 [compound 20]	1.07
O=C1CCc2cc(/C=C/C(=O)N3CC4CC(n5ccnn5)CC4C3)cnc2N1 (centres unmarked) [compound 38]	2.08
C#CN1C[C@@H]2CN(C(=O)/C=C/c3cnc4c(c3)CCC(=O)N4)C[C@@H]2C1 [compound 30]	2.66

— US9617262B2, “Antibacterial cyclopental[C]pyrrole substituted 3,4-dihydro-1H-[1,8]naphthyridinones” (Janssen Sciences Ireland UC, priority 2011, dated 2017)
